Results on five compounds are retold here after patent publication US20210069333A1, “CANNABINOIDS IN COMBINATION WITH NON-CANNABINOID CHEMOTHERAPEUTIC AGENTS” (GW Pharma Limited, priority 2008, published 2021).

The test system of assay [1] is human U87 MG astrocytoma cells. The experiment in a line: Cell viability of human U87 MG astrocytoma cells in culture. The format is cell-based. As to conditions: for reduction of cell viability in combination with THC vs agent alone: U87 MG, combined with THC, FIGS. 4 and 5; for IC50: Homo sapiens, U-87 MG, read-out: IC50 μM (pure cannabinoids). As to the method: Tetrahydrocannabinol (THC) and cannabidiol (CBD) in the form of cannabis plant extracts were dissolved in ethanol to a concentration of 100 mM this was stored at −20° C. until required.
Before use the cannabis plant extracts were further diluted to the desired concentration, ensuring that the concentration of ethanol was below 0.001%.
U87 human glioma cells were used throughout this experiment. The cells were maintained at 37° C. in a humidified atmosphere with 5% CO2 and 95% air.
Cells were cultured in a 75 cm^2 culture flask in Dulbecco's Modified Eagle Medium (DMEM), which had been supplemented with 4 mM L-glutamine, 100 units/ml penicillin, […], 1% sodium pyruvate, 1% non-essential amino acids and 10% heat-inactivated fetal bovine serum.
The viability of the human U87 MG astrocytoma cells were examined at various cannabinoid concentrations. The THC and CBD extracts were compared against pure THC and CBD.
The methods used were as described in Example 1 above.
The action of THC, CBD, and a 1:1 ratio mix of THC and CBD were studied at different concentrations on two cell lines: U87MG and T98G.
Cell viability assays were performed as described in Example 1 above.

Another assay concerns U87MG cells. The assay is described as follows: Induced cell death in U87MG cells with ATG1 silencing or pan-caspase inhibitor. As to conditions: cell death induced by the THC:CBD combination, FIGS. 3b and 3c.
In assay [2] the test system is Human U87 MG astrocytoma cells xenografted to nude mice. The experiment in a line: U87 MG astrocytoma xenograft in nude mice, tumour volume. The conditions noted are these: 15 mg/kg per day, injected peritumourally. The format is in vivo. The protocol:
Human U87 MG astrocytoma cells were xenografted to nude mice and the test compounds were injected peritumourally at a concentration of 15 mg/kg per day.

For `CC/C(=C(\c1ccccc1)c1ccc(OCCN(C)C)cc1)c1ccccc1` [tamoxifen], in assay [1], the “reduction of cell viability in combination with THC vs agent alone” value is on record as “more efficient at reducing cell viability”.
The same measure, in the same setting: the result for `N.N.[Cl][Pt][Cl]` [cisplatin] reads “more efficient at reducing cell viability”.
Regarding Z-VAD, the “effect on induced cell death” value in the assay with U87MG cells was “prevent induced cell death”.
For the compound `CCCCCc1cc(O)c2c(c1)OC(C)(C)[C@@H]1CCC(C)=C[C@@H]21` [THC, tetrahydrocannabinol], the IC50 in assay [1] worked out at 0.37 µM. The “Tumour volume relative to zero time following 15 days of treatment” value in assay [2] came out at 5.1 ± 0.4.
Take `C=C(C)[C@@H]1CCC(C)=C[C@H]1c1c(O)cc(CCCCC)cc1O` [CBD, cannabidiol]: the IC50 in assay [1] was 0.47 µM.
